Test system: transcription from VEGF promoter
Experiment: VEGF transcription-suppressing activity, VEGF-PLAP reporter in U251/1-8 cell
Assay type: cell-based
Conditions: Homo sapiens, U-251; U251/1-8 cell, PLAP activity, low oxygen 18 hours; read-out: IC50 values of VEGF transcription-suppressing activity (range given)
Method in brief: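 U251 glioma clone stably carrying a ~2.3 kb human VEGF promoter–secreted PLAP reporter, 4×10^4 cells/well, exposed to 3-fold dilutions of compound for 18 h under low oxygen. Supernatant PLAP read by chemiluminescence at pH 10.0; IC50 = 50% suppression, normoxia 0%, hypoxia 100%.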

With `CCC(O)C(C)C1OC1CC(C)/C=C/C=C(\C)C1OC(=O)CC(O)CCC(C)(O)C(OC(=O)NCCOC)/C=C/C1C` (centres unmarked) [B53, (8E,12E,14E)-3,6,21-Trihydroxy-7-(N-(2-methoxyethyl))carbamoyloxy-6,10,12,16,20-pentamethyl-18,19-epoxytricosa-8,12,14-trien-11-olide] as the compound, how does the IC50 read?
Its IC50 is 0.5 to 100 nM.

With `CCC(O)C(C)C1OC1CC(C)/C=C/C=C(\C)C1OC(=O)CC(O)CCC(C)(O)C(OC(=O)NCCN(C)C)/C=C/C1C` (centres unmarked) [B54, (8E,12E,14E)-7-(N-(2-Dimethylamino)ethyl)carbamoyloxy-3,6,21-trihydroxy-6,10,12,16,20-pentamethyl-18,19-epoxytricosa-8,12,14-trien-11-olide] as the compound, how does the IC50 read?
Its IC50 is 0.5 to 100 nM.

Which IC50 does the source give for `CCC(O)C(C)C1OC1CC(C)/C=C/C=C(\C)C1OC(=O)CC(O)CCC(C)(O)C(OC(=O)NCCCN(C)C)/C=C/C1C` (centres unmarked) [B55, (8E,12E,14E)-7-(N-(3-Dimethylamino)propyl)carbamoyloxy-3,6,21-trihydroxy-6,10,12,16,20-pentamethyl-18,19-epoxytricosa-8,12,14-trien-11-olide] here?
Its IC50 is 0.5 to 100 nM.

For `CCC(O)C(C)C1OC1CC(C)/C=C/C=C(\C)C1OC(=O)CC(O)CCC(C)(O)C(OC(=O)NCc2ccccn2)/C=C/C1C` (centres unmarked) [B56, (8E,12E,14E)-3,6,21-Trihydroxy-6,10,12,16,20-pentamethyl-7-N-(2-pyridylmethyl)carbamoyloxy-18,19-epoxytricosa-8,12,14-trien-11-olide], which IC50 is on record?
Its IC50 is 0.5 to 100 nM.

Which IC50 does the source give for `CCC(O)C(C)C1OC1CC(C)/C=C/C=C(\C)C1OC(=O)CC(O)CCC(C)(O)C(OC(=O)NCc2cccnc2)/C=C/C1C` (centres unmarked) [B57, (8E,12E,14E)-3,6,21-Trihydroxy-6,10,12,16,20-pentamethyl-7-N-(3-pyridylmethyl)carbamoyloxy-18,19-epoxytricosa-8,12,14-trien-11-olide] here?
Its IC50 is 0.5 to 100 nM.

For `CCC(O)C(C)C1OC1CC(C)/C=C/C=C(\C)C1OC(=O)CC(O)CCC(C)(O)C(OC(=O)NCc2ccncc2)/C=C/C1C` (centres unmarked) [B58, (8E,12E,14E)-3,6,21-Trihydroxy-6,10,12,16,20-pentamethyl-7-N-(4-pyridylmethyl)carbamoyloxy-18,19-epoxytricosa-8,12,14-trien-11-olide], which IC50 is on record?
The IC50 was 0.5 to 100 nM.

Which IC50 does the source give for `CCC(O)C(C)C1OC1CC(C)/C=C/C=C(\C)C1OC(=O)CC(O)CCC(C)(O)C(OC(=O)NCCN2CCOCC2)/C=C/C1C` (centres unmarked) [B59, (8E,12E,14E)-3,6,21-Trihydroxy-6,10,12,16,20-pentamethyl-7-N-(2-(morpholin-4-yl)ethyl)carbamoyloxy-18,19-epoxytricosa-8,12,14-trien-11-olide] here?
The IC50 was 0.5 to 100 nM.

For `CCC(O)C(C)C1OC1CC(C)/C=C/C=C(\C)C1OC(=O)CC(O)CCC(C)(O)C(OC(=O)NCCCN2CCOCC2)/C=C/C1C` (centres unmarked) [B60, (8E,12E,14E)-3,6,21-Trihydroxy-6,10,12,16,20-pentamethyl-7-N-(3-(morpholin-4-yl)propyl)carbamoyloxy-18,19-epoxytricosa-8,12,14-trien-11-olide], which IC50 is on record?
Its IC50 is 0.5 to 100 nM.

For `CCC(O)C(C)C1OC1CC(C)/C=C/C=C(\C)C1OC(=O)CC(O)CCC(C)(O)C(OC(=O)N2CCCNCC2)/C=C/C1C` (centres unmarked) [B61, (8E,12E,14E)-3,6,21-Trihydroxy-6,10,12,16,20-pentamethyl-7-((homopiperazin-1-yl)carbonyl)oxy-18,19-epoxytricosa-8,12,14-trien-11-olide], which IC50 is on record?
Its IC50 is 0.5 to 100 nM.

With `CCC(O)C(C)C1OC1CC(C)/C=C/C=C(\C)C1OC(=O)CC(O)CCC(C)(O)C(OC(=O)N2CCCN(C)CC2)/C=C/C1C` (centres unmarked) [B62, (8E,12E,14E)-3,6,21-Trihydroxy-6,10,12,16,20-pentamethyl-7-((4-methylhomopiperazin-1-yl)carbonyl)oxy-18,19-epoxytricosa-8,12,14-trien-11-olide] as the compound, how does the IC50 read?
Its IC50 is 0.5 to 100 nM.

With `CCC(O)C(C)C1OC1CC(C)/C=C/C=C(\C)C1OC(=O)CC(O)CCC(C)(O)C(OC(=O)NCCN2CCCCC2)/C=C/C1C` (centres unmarked) [B63, (8E,12E,14E)-3,6,21-Trihydroxy-6,10,12,16,20-pentamethyl-7-N-(2-(piperidin-1-yl)ethyl)carbamoyloxy-18,19-epoxytricosa-8,12,14-trien-11-olide] as the compound, how does the IC50 read?
The IC50 was 0.5 to 100 nM.

With `CCC(O)C(C)C1OC1CC(C)/C=C/C=C(\C)C1OC(=O)CC(O)CCC(C)(O)C(OC(=O)NCCN2CCCC2)/C=C/C1C` (centres unmarked) [B64, (8E,12E,14E)-3,6,21-Trihydroxy-6,10,12,16,20-pentamethyl-7-N-(2-(pyrrolidin-1-yl)ethyl)carbamoyloxy-18,19-epoxytricosa-8,12,14-trien-11-olide] as the compound, how does the IC50 read?
Its IC50 is 0.5 to 100 nM.

For `CCC(O)C(C)C1OC1CC(C)/C=C/C=C(\C)C1OC(=O)CC(O)CCC(C)(O)C(OC(=O)N2CCN(CC)CC2)/C=C/C1C` (centres unmarked) [B65, (8E,12E,14E)-3,6,21-Trihydroxy-6,10,12,16,20-pentamethyl-7-((4-ethylpiperazin-1-yl)carbonyl)oxy-18,19-epoxytricosa-8,12,14-trien-11-olide], which IC50 is on record?
Its IC50 is 0.5 to 100 nM.

With `CCC(O)C(C)C1OC1CC(C)/C=C/C=C(\C)C1OC(=O)CC(O)CCC(C)(O)C(OC(=O)N2CCN(CCO)CC2)/C=C/C1C` (centres unmarked) [B66, (8E,12E,14E)-3,6,21-Trihydroxy-6,10,12,16,20-pentamethyl-7-((4-(2-hydroxyethyl)piperazin-1-yl)carbonyl)oxy-18,19-epoxytricosa-8,12,14-trien-11-olide] as the compound, how does the IC50 read?
The IC50 was 0.5 to 100 nM.

Which IC50 does the source give for `CCC(O)C(C)C1OC1CC(C)/C=C/C=C(\C)C1OC(=O)CC(O)CCC(C)(O)C(OC(=O)N2CC(C)NCC2C)/C=C/C1C` (centres unmarked) [B67, (8E,12E,14E)-3,6,21-Trihydroxy-6,10,12,16,20-pentamethyl-7-((2,5-dimethylpiperazin-1-yl)carbonyl)oxy-18,19-epoxytricosa-8,12,14-trien-11-olide] here?
Its IC50 is 0.5 to 100 nM.

With `CCC(O)C(C)C1OC1CC(C)/C=C/C=C(\C)C1OC(=O)CC(O)CCC(C)(O)C(OC(=O)NC(=O)CCl)/C=C/C1C` (centres unmarked) [B69, (8E,12E,14E)-7-(N-Chloroacetyl)carbamoyloxy-3,6,21-trihydroxy-6,10,12,16,20-pentamethyl-18,19-epoxytricosa-8,12,14-trien-11-olide] as the compound, how does the IC50 read?
Its IC50 is 0.5 to 100 nM.

With `CC/C(=N\OC)C(C)C1OC1CC(C)/C=C/C=C(\C)C1OC(=O)CC(O)CCC(C)(O)C(OC(C)=O)/C=C/C1C` (centres unmarked) [B74, (8E,12E,14E)-7-Acetoxy-3,6-dihydroxy-21-methoxyimino-6,10,12,16,20-pentamethyl-18,19-epoxytricosa-8,12,14-trien-11-olide] as the compound, how does the IC50 read?
The IC50 was 0.5 to 100 nM.

For `CC/C(=N\OCc1ccccc1)C(C)C1OC1CC(C)/C=C/C=C(\C)C1OC(=O)CC(O)CCC(C)(O)C(OC(C)=O)/C=C/C1C` (centres unmarked) [B75, (8E,12E,14E)-7-Acetoxy-21-benzyloxyimino-3,6-dihydroxy-6,10,12,16,20-pentamethyl-18,19-epoxytricosa-8,12,14-trien-11-olide], which IC50 is on record?
The IC50 was 0.5 to 100 nM.

Which IC50 does the source give for `CCC(O)C(C)C1OC1CC(C)/C=C/C=C(\C)C1OC(=O)CC(O)CCC(C)(O)C(OC(=O)N2CCC(N3CCCCC3)CC2)/C=C/C1C` (centres unmarked) [B77] here?
Its IC50 is 0.5 to 100 nM.

For `CCC(O)C(C)C1OC1CC(C)/C=C/C=C(\C)C1OC(=O)CC(O)CCC(C)(O)C(OC(=O)NCCCN2CCN(C)CC2)/C=C/C1C` (centres unmarked) [B78, (8E,12E,14E)-3,6,21-Trihydroxy-6,10,12,16,20-pentamethyl-7-N-(3-(4-methylpiperazin-1-yl)propyl)carbamoyloxy-18,19-epoxytricosa-8,12,14-trien-11-olide], which IC50 is on record?
Its IC50 is 0.5 to 100 nM.

Which IC50 does the source give for `CCC(O)C(C)C1OC1CC(C)/C=C/C=C(\C)C1OC(=O)CC(O)CCC(C)(O)C(OC(=O)NC2CCN(C)CC2)/C=C/C1C` (centres unmarked) [B79, (8E,12E,14E)-3,6,21-Trihydroxy-6,10,12,16,20-pentamethyl-7-N-(1-methylpiperidin-4-yl)carbamoyloxy-18,19-epoxytricosa-8,12,14-trien-11-olide] here?
Its IC50 is 0.5 to 100 nM.

With `CCC(O)C(C)C1OC1CC(C)/C=C/C=C(\C)C1OC(=O)CC(O)CCC(C)(O)C(OC(=O)N(C)C2CCN(C)CC2)/C=C/C1C` (centres unmarked) [B80, (8E,12E,14E)-3,6,21-Trihydroxy-6,10,12,16,20-pentamethyl-7-N-methyl-N-(1-methylpiperidin-4-yl)carbamoyloxy-18,19-epoxytricosa-8,12,14-trien-11-olide] as the compound, how does the IC50 read?
The IC50 was 0.5 to 100 nM.

With `CCC(O)C(C)C1OC1CC(C)/C=C/C=C(\C)C1OC(=O)CC(O)CCC(C)(O)C(OC(=O)N2CC(C)NC(C)C2)/C=C/C1C` (centres unmarked) [B81, (8E,12E,14E)-3,6,21-Trihydroxy-6,10,12,16,20-pentamethyl-7-((3,5-dimethylpiperazin-1-yl)carbonyl)oxy-18,19-epoxytricosa-8,12,14-trien-11-olide] as the compound, how does the IC50 read?
The IC50 was 0.5 to 100 nM.

With `CCC(O)C(C)C1OC1CC(C)/C=C/C=C(\C)C1OC(=O)CC(O)CCC(C)(O)C(OC(=O)NC2CC(C)(C)N(C)C(C)(C)C2)/C=C/C1C` (centres unmarked) [B82, (8E,12E,14E)-3,6,21-Trihydroxy-6,10,12,16,20-pentamethyl-7-N-(1,2,2,6,6-pentamethylpiperidin-4-yl)carbamoyloxy-18,19-epoxytricosa-8,12,14-trien-11-olide] as the compound, how does the IC50 read?
The IC50 was 0.5 to 100 nM.

Test system: not listed separately
Experiment: Solubility (physico-chemical properties of the 11107 analogues)
Conditions: in dimethylsulfoxide, pyridine, methanol, acetone and water

With `CCC(=O)/C(C)=C/C(O)CC(C)/C=C/C=C(\C)C1OC(=O)CC(O)CCC(C)(O)C(OC(C)=O)/C=C/C1C` (centres unmarked) [11107AA] as the compound, how does the Solubility read?
The Solubility was “soluble in dimethylsulfoxide, pyridine, methanol and acetone, and slightly soluble in water”.

With `CCC(=O)C(C)C1OC1CC(C)/C=C/C=C(\C)C1OC(=O)CC(O)CCC(C)(O)C(O)/C=C/C1C` (centres unmarked) [11107AC] as the compound, how does the Solubility read?
The Solubility was “soluble in dimethylsulfoxide, pyridine, methanol and acetone, and slightly soluble in water”.

For `CCC(O)C(C)C1OC1CC(C)/C=C/C=C(\C)C1OC(=O)CC(O)CCC(C)(O)C(OC(C)=O)/C=C/C1C` (centres unmarked) [11107AD], which Solubility is on record?
Its Solubility is “soluble in dimethylsulfoxide, pyridine, methanol and acetone, and slightly soluble in water”.

For `CCC(O)C(O)CC(C)/C=C/C=C(\C)C1OC(=O)CC(O)CCC(C)(O)C(OC(C)=O)/C=C/C1C` (centres unmarked) [11107AF], which Solubility is on record?
The Solubility was “soluble in dimethylsulfoxide, pyridine, methanol and acetone, and slightly soluble in water”.

With `CCC(O)C(C)C(O)C(O)CC(C)CC/C=C(\C)C1OC(=O)CC(O)CCC(C)(O)C(OC(C)=O)/C=C/C1C` (centres unmarked) [11107AG] as the compound, how does the Solubility read?
The Solubility was “soluble in dimethylsulfoxide, pyridine, methanol and acetone, and slightly soluble in water”.
